We go through one compound from patent US7329651B2 (priority 2001, dated 2008).

The target of test [1] is T1, CB2 receptor (Mus musculus, UniProt P47936).
T1 construct: membranes were prepared from frozen mouse spleen; from tissue; host or cells: mouse spleen
Briefly: biochemical. Type of test: binding. As to the method: (§1) The prepared cannabinoid compounds were tested for CB2 receptor binding affinity and for CB1 receptor affinity (to determine selectivity for the CB2 receptor). As used herein, “binding affinity” is represented by the IC50 value which is the concentration of an analog required to occupy the 50% of the total number (Bmax) of the receptors. The lower the IC50 value, the higher the binding affinity. […] The binding affinities (Ki) are expressed in nanomoles (nM).
(§2) The treated membranes were subsequently used in the binding assay described below. Approximately 30 μg of membranes were incubated in silanized 96-well microtiter plate with TME containing 0.1% essentially fatty acid-free bovine serum albumin (BSA), 0.8 nM [^3H] CP-55,940, and various concentrations of test materials at 30° C. for 1 hour. The samples were immediately filtered using a Packard Filtermate 196 and Whatman GF/C filterplates and washed with wash buffer (TME) containing 0.5% BSA. Radioactivity was detected using MicroScint 20 scintillation cocktail added directly to the dried filterplates, and the filterplates were counted using a Packard Instruments Top-Count. Nonspecific binding was assessed using 100 nM CP-55,940. Data collected from three independent experiments performed with duplicate determinations was normalized between 100% and 0% specific binding for [^3H] CP-55,940, determined using buffer and 100 nM CP-55,940. The normalized data was analyzed using a 4-parameter nonlinear logistic equation to yield IC50 values. Data from at least two independent experiments performed in duplicate was used to calculate IC50 values which were converted to Ki values using the using the assumptions of Cheng et al; “Relationship Between the Inhibition Constant (Ki) and the concentration of Inhibitor which causes 50% Inhibition (IC50) of an Enzymatic Reaction”, Biochem. Pharmacol., 22, 3099-3102, (1973), which is incorporated by reference herein.
For the CB2 receptor binding studies, membranes were prepared from frozen mouse spleen essentially according to the procedure of P. R. Dodd et al; “A Rapid Method for Preparing Synaptosomes: Comparison with Alternative Procedures”, Brain Res., 226, 107-118 (1981) which is incorporated by reference herein. Silanized centrifuge tubes were used throughout to minimize receptor loss due to adsorption. The CB2 binding assay was conducted in the same manner as the CB1 binding assay. The binding affinities (Ki) were also expressed in nanomoles (nM).

Test [2] concerns the target CB2 (Homo sapiens, UniProt P34972). The experiment in a line: Intracellular cyclic AMP levels, comparative protein binding assay (adenylate cyclase inhibition). Type of test: cell-based. As to conditions: intracellular cAMP. As to the method:
Intracellular cyclic AMP (cAMP) levels are measured with a comparative protein binding assay (materials available from Diagnostic Products, Inc. of Carlsbad, Calif.) generally according to the method described in Tao, Q. and M. E. Abood; “Mutation of a highly conserved aspartate residue in the second transmembrane domain of the cannabinoid receptors, CB1 and CB2, disrupts G-protein coupling”, J Pharmacol Exp Ther, 1998, 285(2): pp. 651-658, which is incorporated by reference herein. […] The IC50 value for Compound 2 was 8 nM.

Test [3] addresses T2, CB1 cannabinoid receptor (Rattus norvegicus, UniProt P20272).
T2 construct: membranes were prepared from rat forebrain membranes; from tissue; host or cells: rat forebrain
The experiment in a line: CB1 receptor binding, [3H] CP-55,940 displacement, rat forebrain membranes. The conditions noted are these: rat forebrain membranes, 0.8 nM [3H] CP-55,940; read-out: Ki(nM) CB1. The method, then:
as §1
For the CB1 receptor binding studies, membranes were prepared from rat forebrain membranes according to the procedure of P. R. Dodd et al; A Rapid Method for Preparing Synaptosomes: Comparison with Alternative Procedures, Brain Res., 107-118 (1981). The binding of the novel analogues to the CB1 cannabinoid receptor was assessed as described in W. A. Devane et al; Determination and Characterization of a Cannabinoid Receptor in a Rat Brain, Mol. Pharmacol., 34, 605-613 (1988) and A. Charalambous et al; “5′-azido ^8−THC: A Novel Photoaffinity Label for the Cannabinoid Receptor”, J. Med. Chem., 35, 3076-3079 (1992) with the following changes. The above articles are incorporated by reference herein.
Membranes, previously frozen at −80° C., were thawed on ice. To the stirred suspension was added three volumes of TME (25 mM Tris-HCl buffer, 5 mM MgCl2 and 1 mM EDTA) at a pH 7.4. The suspension was incubated at 40° C. for 30 min. At the end of the incubation, the membranes were pelleted and washed three times with TME.
as §2

Sequence of CB2 (P34972 whole entry, species assumed, the tested form may be a part): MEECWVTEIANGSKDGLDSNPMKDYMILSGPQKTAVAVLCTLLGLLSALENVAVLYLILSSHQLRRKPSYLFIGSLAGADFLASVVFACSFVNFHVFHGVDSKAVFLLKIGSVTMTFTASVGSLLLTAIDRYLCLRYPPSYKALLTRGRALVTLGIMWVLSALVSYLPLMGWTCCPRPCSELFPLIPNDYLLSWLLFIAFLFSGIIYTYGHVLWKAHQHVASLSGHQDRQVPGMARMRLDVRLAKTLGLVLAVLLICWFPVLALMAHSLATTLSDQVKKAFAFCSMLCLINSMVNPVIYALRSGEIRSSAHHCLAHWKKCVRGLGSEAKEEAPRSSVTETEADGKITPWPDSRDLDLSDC
T1 sequence (P47936 whole entry): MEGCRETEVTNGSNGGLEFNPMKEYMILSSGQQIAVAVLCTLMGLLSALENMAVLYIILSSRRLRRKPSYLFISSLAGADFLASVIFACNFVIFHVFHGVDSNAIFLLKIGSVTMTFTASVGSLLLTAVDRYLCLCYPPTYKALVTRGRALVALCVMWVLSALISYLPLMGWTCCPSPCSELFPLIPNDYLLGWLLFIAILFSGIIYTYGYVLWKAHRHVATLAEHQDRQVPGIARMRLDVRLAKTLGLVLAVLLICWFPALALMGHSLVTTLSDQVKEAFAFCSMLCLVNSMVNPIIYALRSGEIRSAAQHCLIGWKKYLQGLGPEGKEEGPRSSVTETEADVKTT
T2 sequence (P20272 whole entry): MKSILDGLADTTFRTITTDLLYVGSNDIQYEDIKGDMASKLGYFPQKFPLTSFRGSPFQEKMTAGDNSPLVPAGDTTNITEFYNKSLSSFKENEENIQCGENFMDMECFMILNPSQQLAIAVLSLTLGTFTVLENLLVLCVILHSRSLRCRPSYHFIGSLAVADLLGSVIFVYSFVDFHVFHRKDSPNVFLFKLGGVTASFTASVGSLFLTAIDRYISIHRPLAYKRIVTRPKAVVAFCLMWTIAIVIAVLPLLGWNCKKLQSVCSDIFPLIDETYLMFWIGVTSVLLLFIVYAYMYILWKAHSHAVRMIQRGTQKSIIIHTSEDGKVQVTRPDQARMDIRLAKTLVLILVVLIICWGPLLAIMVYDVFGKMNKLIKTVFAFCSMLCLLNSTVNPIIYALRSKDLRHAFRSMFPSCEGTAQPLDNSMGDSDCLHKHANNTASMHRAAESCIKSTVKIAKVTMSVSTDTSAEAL

On to `CCOC(=O)C1=NN(c2ccccc2)C(C(=O)OCC)=NN1c1ccccc1` [compound 2], for which the Ki in test [1] (mouse spleen membranes, [3H] CP-55,940, read-out: Ki(nM) CB2) was determined as 19 nM; in test [3] it was 1670 nM. The “Selectivity for CB2” value in test [1] (ratio of CB1 Ki to CB2 Ki) was 88. In test [2] (adenylate cyclase), the “effect on formation of cyclic AMP” value is “reduce formation of cyclic AMP by inhibiting adenylate cyclase”. Also, the IC50 in test [2] (read-out: IC50 value, reduction of cyclic AMP formation) amounted to 8 nM.

For orientation: Ki means a measure of affinity in units of concentration, obtained from inhibition or displacement. As usually defined, the IC50 is the concentration that inhibits the measured activity by half.
